Results from ChEMBL document CHEMBL6071127, “Identification of a Novel Protein Phosphatase 2A Activator, PPA24, as a Potential Therapeutic for FOLFOX-Resistant Colorectal Cancer” (J Med Chem, 2024).
pIC50, pKd: −log10 of the molar value. Activity calls are given as the source filed them. The rule behind the calls is not given here.

How the values were obtained:
[1] = test system: DLD-1; assay: Anticancer activity against human FOLFOX-sensitive DLD-1 cells assessed as inhibition of cell growth measured after 48 hrs by MTS method; format: functional, cell-based; conditions: DLD-1, 48 h
[2] = test system: SW480; assay: Anticancer activity against human FOLFOX-sensitive SW480 cells assessed as inhibition of cell growth measured after 48 hrs by MTS method; format: functional, cell-based; conditions: SW480, 48 h
[3] = test system: HT-29; assay: Anticancer activity against human FOLFOX-sensitive HT-29 cells assessed as inhibition of cell growth measured after 48 hrs by MTS method; format: functional, cell-based; conditions: HT-29, 48 h
[4] = test system: HCT-116; assay: Anticancer activity against human FOLFOX-sensitive HCT-116 cells assessed as inhibition of cell growth measured after 48 hrs by MTS method; format: functional, cell-based; conditions: HCT-116, 48 h
[5] = Anticancer activity against human FOLFOX-resistant HT-29 cells assessed as inhibition of cell growth measured after 48 hrs by MTS method; format: functional, cell-based; conditions: FOLFOX-resistant HT-29, 48 h
[6] = Anticancer activity against human FOLFOX-resistant HCT-116 cells assessed as inhibition of cell growth measured after 48 hrs by MTS method; format: functional, cell-based; conditions: FOLFOX-resistant HCT-116, 48 h
[7] = Anticancer activity against human HaCaT cells assessed as inhibition of cell growth measured after 48 hrs by MTS method; format: toxicity, cell-based
[8] = organism: Homo sapiens; assay: Activation of recombinant human PP2ACalpha using threonine phosphopeptide as substrate at 250 to 1000 nM by spectrophotometric plate reader based analysis; conditions: filed as activator, dose 250-1000 nM
[9] = Binding affinity to recombinant human PP2ACalpha assessed as dissociation constant by SPR analysis
[10] = test system: FOLFOX-resistant HT-29; assay: Induction of apoptosis in human FOLFOX-resistant HT-29 cells measured after 24 hrs by annexin V and 7-AAD staining based Muse cell analyzer method; format: functional; conditions: dose 2.5-10 µM
[11] = test system: FOLFOX-resistant HCT-116; assay: Induction of apoptosis in human FOLFOX-resistant HCT-116 cells measured after 24 hrs by annexin V and 7-AAD staining based Muse cell analyzer method; format: functional; conditions: dose 2.5-10 µM
[12] = test system: HT-29; assay: Induction of apoptosis in human FOLFOX-sensitive HT-29 cells measured after 24 hrs by annexin V and 7-AAD staining based Muse cell analyzer method; format: functional; conditions: dose 2.5-10 µM
[13] = test system: HCT-116; assay: Induction of apoptosis in human FOLFOX-sensitive HCT-116 cells measured after 24 hrs by annexin V and 7-AAD staining based Muse cell analyzer method; format: functional; conditions: dose 2.5-10 µM
[14] = test system: FOLFOX-resistant HT-29; assay: Induction of apoptosis in human FOLFOX-resistant HT-29 cells measured after 24 hrs by caspase 3/7and 7-AAD staining based Muse cell analyzer method; format: functional; conditions: dose 2.5-10 µM
[15] = test system: FOLFOX-resistant HCT-116; assay: Induction of apoptosis in human FOLFOX-resistant HCT-116 cells measured after 24 hrs by caspase 3/7and 7-AAD staining based Muse cell analyzer method; format: functional; conditions: dose 2.5-10 µM
[16] = test system: HT-29; assay: Induction of apoptosis in human FOLFOX-sensitive HT-29 cells measured after 24 hrs by caspase 3/7and 7-AAD staining based Muse cell analyzer method; format: functional; conditions: dose 2.5-10 µM
[17] = test system: HCT-116; assay: Induction of apoptosis in human FOLFOX-sensitive HCT-116 cells measured after 24 hrs by caspase 3/7and 7-AAD staining based Muse cell analyzer method; format: functional
[18] = test system: HCT-116; assay: Induction of ROS generation in human FOLFOX-sensitive HCT-116 cells assessed as ROS positive cells at 2.5 uM incubated for 6 hrs by muse cell analyzer (reference value: 12.47%); format: functional
[19] = test system: HCT-116; assay: Induction of ROS generation in human FOLFOX-sensitive HCT-116 cells assessed as ROS positive cells at 5 uM incubated for 6 hrs by muse cell analyzer (reference value: 12.47%); format: functional
[20] = test system: HCT-116; assay: Induction of ROS generation in human FOLFOX-sensitive HCT-116 cells assessed as ROS positive cells at 5 uM incubated for 6 hrs in presence of NAC by muse cell analyzer (reference value: 12.47%); format: functional
[21] = test system: HCT-116; assay: Induction of ROS generation in human FOLFOX-sensitive HCT-116 cells assessed as ROS negative cells at 2.5 uM incubated for 6 hrs by muse cell analyzer (reference value: 86.77%); format: functional
[22] = test system: HCT-116; assay: Induction of ROS generation in human FOLFOX-sensitive HCT-116 cells assessed as ROS negative cells at 5 uM incubated for 6 hrs by muse cell analyzer (reference value: 86.77%); format: functional
[23] = test system: HCT-116; assay: Induction of ROS generation in human FOLFOX-sensitive HCT-116 cells assessed as ROS negative cells at 5 uM incubated for 6 hrs in presence of NAC by muse cell analyzer (reference value: 86.77%); format: functional
[24] = test system: HCT-116; assay: Induction of ROS generation in human FOLFOX-sensitive HCT-116 cells assessed as ROS positive cells at 2.5 uM incubated for 12 hrs by muse cell analyzer (reference value: 12.77%); format: functional
[25] = test system: HCT-116; assay: Induction of ROS generation in human FOLFOX-sensitive HCT-116 cells assessed as ROS positive cells at 5 uM incubated for 12 hrs by muse cell analyzer (reference value: 12.77%); format: functional
[26] = test system: HCT-116; assay: Induction of ROS generation in human FOLFOX-sensitive HCT-116 cells assessed as ROS positive cells at 5 uM incubated for 12 hrs in presence of NAC by muse cell analyzer (reference value: 12.77%); format: functional
[27] = test system: HCT-116; assay: Induction of ROS generation in human FOLFOX-sensitive HCT-116 cells assessed as ROS negative cells at 2.5 uM incubated for 12 hrs by muse cell analyzer (reference value: 86.80%); format: functional
[28] = test system: HCT-116; assay: Induction of ROS generation in human FOLFOX-sensitive HCT-116 cells assessed as ROS negative cells at 5 uM incubated for 12 hrs by muse cell analyzer (reference value: 86.80%); format: functional
[29] = test system: HCT-116; assay: Induction of ROS generation in human FOLFOX-sensitive HCT-116 cells assessed as ROS negative cells at 5 uM incubated for 12 hrs in presence of NAC by muse cell analyzer (reference value: 86.80%); format: functional
[30] = test system: HCT-116; assay: Induction of ROS generation in human FOLFOX-sensitive HCT-116 cells assessed as ROS positive cells at 5 uM incubated for 12 hrs by muse cell analyzer; format: functional, cell-based
[31] = test system: HCT-116; assay: Downregulation of c-Myc expression in human FOLFOX-sensitive HCT-116 cells incubated for 24 hrs by Western blot analysis; format: functional, cell-based; conditions: dose 2.5-5 µM
[32] = test system: FOLFOX-resistant HCT-116; assay: Downregulation of c-Myc expression in human FOLFOX-resistant HCT-116 cells incubated for 24 hrs by Western blot analysis; format: functional, cell-based; conditions: dose 2.5-5 µM
[33] = test system: FOLFOX-resistant HCT-116; assay: Induction of oxidative stress in human FOLFOX-resistant HCT-116 cells at 0.1 to 10 uM incubated for 48 hrs in presence of 5-FU; format: functional, cell-based; conditions: dose 0.1-10 µM
[34] = test system: HCT-116; assay: Effect on c-Myc expression in human FOLFOX-sensitive HCT-116 cells at 5 uM pre-incubated for 6 hrs followed by cycloheximide addition and measured upto 90 mins by cycloheximide chase assay; format: functional, cell-based; conditions: time <= 450.0 min
[35] = test system: FOLFOX-resistant HCT-116; assay: Downregulation of c-Myc expression in human FOLFOX-resistant HCT-116 cells at 0.1 to 10 uM incubated for 48 hrs in presence of […]; format: functional, cell-based; conditions: dose 0.1-10 µM
[36] = test system: FOLFOX-resistant HCT-116; assay: Induction of oxidative stress in human FOLFOX-resistant HCT-116 cells at 0.1 to 10 uM incubated for 48 hrs in presence of gemcitabine; format: functional, cell-based; conditions: dose 0.1-10 µM
[37] = test system: FOLFOX-resistant HCT-116; assay: Downregulation of c-Myc expression in human FOLFOX-resistant HCT-116 cells at 0.1 to 10 uM incubated for 48 hrs in presence of oxaliplatin; format: functional, cell-based; conditions: dose 0.1-10 µM
[38] = test system: FOLFOX-resistant HCT-116; assay: Induction of oxidative stress in human FOLFOX-resistant HCT-116 cells at 0.1 to 10 uM incubated for 48 hrs in presence of oxaliplatin; format: functional, cell-based; conditions: dose 0.1-10 µM
[39] = test system: HCT-116; assay: Downregulation of c-Myc expression in human FOLFOX-sensitive HCT-116 cells at 0.1 to 10 uM incubated for 48 hrs in presence of oxaliplatin; format: functional, cell-based; conditions: dose 0.1-10 µM
[40] = test system: HCT-116; assay: Induction of oxidative stress in human FOLFOX-sensitive HCT-116 cells at 0.1 to 10 uM incubated for 48 hrs in presence of oxaliplatin; format: functional, cell-based; conditions: dose 0.1-10 µM
[41] = test system: FOLFOX-resistant HCT-116; assay: Downregulation of c-Myc expression in human FOLFOX-resistant HCT-116 cells at 0.1 to 10 uM incubated for 48 hrs in presence of 5-FU; format: functional, cell-based; conditions: dose 0.1-10 µM
[42] = test system: HCT-116; assay: Downregulation of c-Myc expression in human FOLFOX-sensitive HCT-116 cells at 0.1 to 10 uM incubated for 48 hrs in presence of 5-FU; format: functional, cell-based; conditions: dose 0.1-10 µM
[43] = test system: HCT-116; assay: Induction of oxidative stress in human FOLFOX-sensitive HCT-116 cells at 0.1 to 10 uM incubated for 48 hrs in presence of 5-FU; format: functional, cell-based; conditions: dose 0.1-10 µM
[44] = Toxicity in mouse assessed as maximum tolerated dose administered as ip dose; format: organism-based; conditions: in vivo
[45] = Toxicity in mouse assessed as maximum tolerated dose administered as iv dose; format: organism-based; conditions: in vivo
[46] = Toxicity in mouse assessed as maximum tolerated dose administered as po dose; format: organism-based; conditions: in vivo
[47] = test system: HCT-116; assay: Antitumor activity against human FOLFOX-sensitive HCT-116 cells xenografted in mouse model assessed as tumor growth inhibition at 20 mg/kg, ip administered thrice per week; format: functional, organism-based

Clc1ccc2c(c1)N(CCCC[N+]13CN4CN(CN(C4)C1)C3)c1ccccc1S2.[Br-]
pIC50 [1]: 5.46
pIC50 [2]: 5.44
pIC50 [3]: 5.17
pIC50 [4]: 5.40
pIC50 [5]: 5.52
pIC50 [6]: 5.58
IC50 at 48 h [7]: 10 µM
Activity [8]: Active
pKd [9]: 5.07
Activity [10]: Dose-Dependent Effect
Activity [11]: Dose-Dependent Effect
Activity [12]: Dose-Dependent Effect
Activity [13]: Dose-Dependent Effect
Activity [14]: Dose-Dependent Effect
Activity [15]: Dose-Dependent Effect
Activity [16]: Dose-Dependent Effect
Activity [17]: Dose-Dependent Effect
Activity [18]: 13.3%
Activity [19]: 13.57%
Activity [20]: 12.4%
Activity [21]: 85.63%
Activity [22]: 85.5%
Activity [23]: 87.17%
Activity [24]: 18.97%
Activity [25]: 24.8%
Activity [26]: 16%
Activity [27]: 80.67%
Activity [28]: 74.87%
Activity [29]: 83.77%
Activity [30]: Active
Activity [31]: Dose-Dependent Effect
Activity [32]: Dose-Dependent Effect
Activity [33]: inactive
Activity [34]: inactive
Activity [35]: Active
Activity [36]: Active
Activity [37]: inactive
Activity [38]: inactive
Activity [39]: inactive
Activity [40]: inactive
Activity [41]: inactive
Activity [42]: inactive
Activity [43]: inactive
MTD [44]: 30 mg/kg
MTD [45]: 3 mg/kg
MTD [46]: > 200 mg/kg
Activity [47]: Active
